Data from publication PMC8682738, “Constrained peptides mimic a viral suppressor of RNA silencing” (Nucleic Acids Research, 2021).
Values joined by “and” are separate entries in the source; they are usually repeats but may differ in a detail not shown here. Equal values may be shown once. Positions of bridges follow the written chain, without caps; N, C: chain ends. Non-standard residues stand in square brackets, D forms with d. Residues, ends and D or L forms follow the SMILES beside them. *: point of attachment. FITC = O=C1OC2(c3ccc(O)cc3Oc3cc(O)ccc32)c2ccc(NC(=S)*)cc21; R8 = C=CCCCCCC[C@@](C)(N)C(=O)O; S5 = C=CCCC[C@](C)(N)C(=O)O; AEEA = NCCOCCOCC(=O)O

Tests used:
[1] = system: pre-miR-21; test: EMSA with pre-miR-21; format: binding; conditions: fluorescein-labeled peptide 6 μM, pre-miR-21 3 μM
Method: (§1) Electrophoretic mobility shift assays (EMSAs) were performed using a Bio-Rad Mini-Protean gel system paired with a direct current (DC) power source (PowerPac™ HC, Bio-Rad). Typically, 6 μl solutions containing ds RNA (c = 3 μM) and fluorescein-labeled peptide (c = 6 μM) were incubated in binding buffer (10 mM Tris (pH 8.0), 0.5 mM EDTA, 12.5% glycerol and 150 mM KCl) at 4°C for 1 h. After incubation, bound RNA was resolved from peptide-free RNA using 10% non-denaturing polyacrylamide gels at 120 V in running buffer (25 mM Tris (pH 8.0), 200 mM glycine, 20 mM NaCl) at 4°C for 1 h. Visualization of fluorescent gel-bound species was conducted using a Typhoon Trio + fluorescence scanner (GE Healthcare Life Sciences). For nucleic acid visualization, gels were stained using 2 μl of SYBR™ gold nucleic acid gel dye (Molecular Probes) in 20 ml of TAE buffer (40 mM Tris, 1 mM EDTA, 20 mM acetic acid) for 45 min at RT before being visualized using a FluorChem™ gel documentation system (Alpha Innotech). To assess B3 binding to different ds RNA sequences (Supplementary Figure S20), 6 μl solutions containing hairpin RNA (c = 1 μM) and fluorescein-labeled B3 (c = 2 μM) were incubated in binding buffer (TAE and 10% glycerol) at RT for 1 h, and then resolved using 15% non-denaturing polyacrylamide gels (acrylamide/bis-acrylamide (19:1) in TAE) at 150 V in running buffer (TAE) at 4°C for 1.5 h. […]

[2] = target: pal-RNA duplex; test: ITC of N-terminally acetylated peptides with pal-RNA duplex; format: binding; conditions: for fold increased affinity compared to linear peptide wt33: unlabeled analogs, pal-RNA
Method: Isothermal titration calorimetry (ITC) was conducted using a MicroCal VP-ITC (Malvern Panalytical). Before measurement, oligonucleotide and peptide samples were dissolved in PBS and degassed using a ThermoVac (Malvern Panalytical) and heated to 30°C. N-terminally acetylated peptides (c = 3–12 μM) were then transferred into the sample cell and oligonucleotides (c = 12–72 μM) were transferred into the syringe. 35 Injections per measurement were performed at 30°C (8 μl injection volume, 2 s injection time, 180 s spacing, high feedback mode) with an initial delay of 60 s and a stirring speed of 307 rpm. Measurements were performed in triplicate. Using the MicroCal LLC ITC software (Origin; OriginLab Corporation), the heat associated with each injection was calculated by integrating the area under the curve in microcalories per second [μca/s] versus time [min] for each injection and then normalized to concentration. A ‘single set of identical binding sites’ model was used to fit the binding curves from which thermodynamic binding parameters (ΔG, ΔH, ΔS, N and Kd) were obtained.

[3] = CD spectroscopy, secondary structure content; format: physicochemical; conditions: fluorescein-labeled peptide 75 μM, 10 mM sodium phosphate pH 7.4, CDNN/PEPFIT; for Helix (α-helicity): unbound
Method: Spectra of fluorescein-labeled peptides were recorded with a J-715 circular dichroism spectrometer (Jasco) using a stoppered quartz cuvette (1 mm; Hellma). Peptide samples (c = 75 μM) were prepared in buffer: 10 mM disodium hydrogen phosphate, pH 7.4. For each sample, 10 CD spectra were measured between λ = 190 and 260 nm with continuous scan mode (10 mdeg sensitivity, 1.0 nm resolution, 1.0 nm bandwidth, 2 s integration time, 50 nm/min scan rate). Obtained spectra were averaged, then subtracted from a reference buffer spectrum and smoothed using a fast Fourier transform filter (FFT filter). The mean residue ellipticity (Θ) (deg·cm^2·dmol^−1·10^4) was calculated using Formula (2) and plotted against wavelength (λ) (nm). The ratio of secondary structure elements was calculated with CDNN using the PEPFIT set of reference spectra for secondary structure determination ([45],[46]):(2) where [Θ]m = mean molar ellipticity per peptide bond (degree·cm^2·dmol^−1·10^4), Θ = measured ellipticity (degree), d = optical path length (cm), cg = mass concentration (g·l^−1), MRW = mean residue weight, M = molar mass of the peptide (g·mol^−1) and N = number of peptide bonds.

[4] = system: yeast transfer RNAs (t-RNAs); test: EMSA with transfer RNA; format: binding, baker's yeast; conditions: fluorescein-labeled peptide 3 μM, t-RNA 9 μM
Method: as §1

[5] = system: K562 human leukemia cells; test: Peptide uptake by flow cytometry; format: cell-based; conditions: fluorescein-labeled peptide 1 μM, 90 min
Method: 2 × 10^6 K562 cells were plated per well in 48-well plates in presence of fluorescein-labeled peptides (c = 1 μM, 0.5% DMSO) in a total volume of 300 μl. After 90 min, cells were treated with proteinase K (2 μg·ml^−1) for 10 min to remove extracellular peptides. Cells were extensively washed and total uptake of labeled peptide was measured by flow cytometry (Cytoflex, Beckman Coulter with the CytExpert software version 2.3). For each peptide, 20 000 events per sample were collected with >85% viable cells (forward/side scatter) that were considered for analysis using a 525/40 nm filter. DMSO was used as a control to distinguish general DMSO-related and peptide-specific effects. Each experiment was performed in triplicate.

[6] = N-terminally acetylated peptide, PBS pH 7.4, 30°C, single set of identical binding sites model, triplicate, errors 1σ

Compound | binding to pre-miR-21 in EMSA [1] | Kd [2, 6] | Kd ([2]; pal-RNA duplex) | fold increased affinity compared to linear peptide wt33 [2] | Random coil [3] | β-Sheet [3] | β-Turn [3] | Helix (α-helicity) [3] | binding to yeast t-RNA mixture in EMSA [4] | fold increase in uptake relative to wt33 [5] | cellular uptake (in words) [5]
CC(C)C[C@H](NC(=O)[C@]1(C)CCCC=CCCC[C@](C)(NC(=O)[C@H](CCC(=O)O)NC(=O)[C@H](CO)NC(=O)[C@@H]2CCCN2C(=O)[C@H](CO)NC(=O)[C@H](CCCCN)NC(=O)[C@H](Cc2c[nH]cn2)NC(=O)CNC(=O)[C@H](CCCNC(=N)N)NC(=O)[C@]2(C)CCCC=CCCC[C@](C)(NC(=O)[C@H](CCCCN)NC(=O)[C@H](Cc3c[nH]cn3)NC(=O)[C@H](CCCNC(=N)N)NC(=O)[C@H](CCCCN)NC(=O)[C@H](CCCNC(=N)N)NC(=O)[C@H](CCC(N)=O)NC(=O)[C@H](C)NC(=O)[C@H](CCC(N)=O)NC(=O)[C@H](CCCCN)NC(=O)[C@H](CCCCN)NC(=O)COCCOCCNC(=S)Nc3ccc4c(c3)C(=O)OC43c4ccc(O)cc4Oc4cc(O)ccc43)C(=O)N[C@@H](CC(N)=O)C(=O)N[C@@H](CCCNC(=N)N)C(=O)N[C@@H](CCCCN)C(=O)N2)C(=O)N[C@@H](CCCNC(=N)N)C(=O)N[C@@H](CCCNC(=N)N)C(=O)N[C@@H](CO)C(=O)N1)C(=O)N[C@@H](Cc1c[nH]c2ccccc12)C(=O)N[C@@H](Cc1c[nH]cn1)C(=O)N[C@@H](C)C(=O)N[C@@H](CCCNC(=N)N)C(N)=O [B3] ({FITC-AEEA}-KKQAQRKRHK[S5]NRK[S5]RGHKSPSE[S5]RRS[S5]LWHAR-NH2; staple 11-15, 24-28) | indicated pre–miRNA-binding | 70 nM | 70 ± 1 nM | 17 fold | 9.3% | 2.0% | 13.9% | 85.0% and 82–85% | did not observe binding |  | 
CC(C)C[C@@H]1NC(=O)[C@@](C)(NC(=O)[C@H](CO)NC(=O)[C@H](CCCNC(=N)N)NC(=O)[C@H](CCCNC(=N)N)NC(=O)[C@H](CCC(N)=O)NC(=O)[C@H](CCC(=O)O)NC(=O)[C@H](CO)NC(=O)[C@@H]2CCCN2C(=O)[C@H](CO)NC(=O)[C@H](CCCCN)NC(=O)[C@H](Cc2c[nH]cn2)NC(=O)CNC(=O)[C@H](CCCNC(=N)N)NC(=O)[C@H](CCC(=O)O)NC(=O)[C@H](CCCCN)NC(=O)[C@H](CCCNC(=N)N)NC(=O)[C@H](CC(N)=O)NC(=O)[C@]2(C)CCCC=CCCCCCC[C@@](C)(NC(=O)[C@H](CCC(N)=O)NC(=O)[C@H](CCCCN)NC(=O)[C@H](CCCCN)NC(=O)COCCOCCNC(=S)Nc3ccc4c(c3)C(=O)OC43c4ccc(O)cc4Oc4cc(O)ccc43)C(=O)N[C@@H](CCC(N)=O)C(=O)N[C@@H](CCCNC(=N)N)C(=O)N[C@@H](CCCCN)C(=O)N[C@@H](CCCNC(=N)N)C(=O)N[C@@H](Cc3c[nH]cn3)C(=O)N[C@@H](CCCCN)C(=O)N2)CCCC=CCCC[C@@](C)(C(=O)N[C@@H](CCCNC(=N)N)C(N)=O)NC(=O)[C@H](Cc2c[nH]cn2)NC(=O)[C@H](Cc2c[nH]c3ccccc23)NC1=O [C1] ({FITC-AEEA}-KKQ[R8]QRKRHK[S5]NRKERGHKSPSEQRRS[S5]LWH[S5]R-NH2; staple 4-11, 28-32) | indicated pre–miRNA-binding | 180 nM |  | 7 fold | 47.0% | 0.2% | 1.8% | 81.5% and 82–85% | did not observe binding | 264 fold | 
CC(C)C[C@@H]1NC(=O)[C@H](CCC(=O)O)NC(=O)[C@H](CO)NC(=O)[C@@](C)(NC(=O)[C@H](CCCNC(=N)N)NC(=O)[C@H](CCC(N)=O)NC(=O)[C@H](CCC(=O)O)NC(=O)[C@H](CO)NC(=O)[C@@H]2CCCN2C(=O)[C@H](CO)NC(=O)[C@H](CCCCN)NC(=O)[C@H](Cc2c[nH]cn2)NC(=O)[C@]2(C)CCCC=CCCCCCC[C@@](C)(NC(=O)[C@H](Cc3c[nH]cn3)NC(=O)[C@H](CCCNC(=N)N)NC(=O)[C@H](CCCCN)NC(=O)[C@H](CCCNC(=N)N)NC(=O)[C@H](CCC(N)=O)NC(=O)[C@H](C)NC(=O)[C@H](CCC(N)=O)NC(=O)[C@H](CCCCN)NC(=O)[C@H](CCCCN)NC(=O)COCCOCCNC(=S)Nc3ccc4c(c3)C(=O)OC43c4ccc(O)cc4Oc4cc(O)ccc43)C(=O)N[C@@H](CC(C)C)C(=O)N[C@@H](CC(N)=O)C(=O)N[C@@H](CCCNC(=N)N)C(=O)N[C@@H](CCCCN)C(=O)N[C@@H](CCC(=O)O)C(=O)N[C@@H](CCCNC(=N)N)C(=O)N2)CCCC=CCCC[C@@](C)(C(=O)N[C@@H](Cc2c[nH]cn2)C(=O)N[C@@H](C)C(=O)N[C@@H](CCCNC(=N)N)C(N)=O)NC1=O [D1] ({FITC-AEEA}-KKQAQRKRH[R8]LNRKER[S5]HKSPSEQR[S5]SEL[S5]HAR-NH2; staple 10-17, 26-30) |  |  |  |  | 31.2% | 12.0% | 9.9% | 48.5% |  |  | considerably enhanced cellular uptake
